Test system: H4 SL1 & SL2 neuroglioma cell line
Test: Cell model of αSyn aggregate formation (phospho-S129 αSyn staining, ARRAYSCAN)
Assay type: cell-based
Settings: 100 μM and 150 μM, 45 hours
Procedure: Next, 583854 was tested for impact on αSyn aggregation in a cell model of αSyn aggregate formation. Split Gaussian luciferase tagged αSyn overexpression was induced in the H4 SL1 & SL2 neuroglioma cell line by tetracycline addition (Moussaud, S., et al. (2015)). αSyn aggregates were visualized by staining fixed (4% PFA) cells with the S129 phosphorylated αSyn specific antibody 11A5 at 1 μg/ml (Anderson, J. P. et al. (2006)) using a green fluorescently labelled secondary antibody. Nuclei were stained with a blue Hoescht nuclear dye. Uninduced cells contained no phospho-αSyn staining and induced cells contain abundant phospho-αSyn aggregates. The cells were imaged for nuclei (blue, diffuse circular staining as in the Uninduced sample)) and phospho-αSyn (green punctate staining) on an ARRAYSCAN automated imaging platform (FIG. 23A), αSyn aggregates were quantitated using the ARRAYSCAN spot-detector algorithm. Cells were induced for αSyn by tetracycline addition and 583854 was added 3 to 4 hours later. At 48 hours after tetracycline addition the cells are washed in PBS and […] with 4% PFA.

CNC(=O)c1cc(O)ccc1O [Compound 583854, 2,5-dihydroxy-N-methylbenzamide]
impact on αSyn aggregates (phospho-αSyn): reduced αSyn aggregates
